This is an account of results in patent publication US11951151B2, “Compositions comprising antimicrobial peptides” (University of Pittsburgh—Of the Commonwealth System of …, priority 2019, dated 2024).

In assay [1] the test system is S. aureus (strain: SH1000). The assay can be described thus: Rabbit periprosthetic joint infection (PJI) model, ex vivo or in vivo treatment at I&D 2 days post infection, implant CFU. Set-up: species or system Staphylococcus aureus. The procedure: (§1) A PJI New Zealand White Rabbit Animal model was used. A 3D printed tibia titanium implant was placed in the knee, and inoculated with S. aureus (strain: SH1000, inoculation density 2×10^6) after closure of the arthrotomy.
(§2) The rabbit is anesthetized with ketamine 40 mg/kg and xylazine 2 mg/kg during surgery. A bone tunnel in the tibial canal is created using a drill with a 1.2 mm or 1.6 mm tungsten carbide drill bit. The bone tunnel is then dried and treated to simulate acute human PJI following primary arthroplasty. A 3D printed titanium implant will then be placed in the bone tunnel and the wound closed. Prior to closure of the superficial skin layer, 0.1 mL of 2×10^6 planktonic bacteria (S. aureus; strain: SH1000; CFU/rabbit) in saline is injected into the joint space. A closure is performed, and a biofilm is allowed to become established over 2 days.
After 48 hours, animals were sacrificed and the implants were exposed to either topical cefazolin (10 mg/kg) or topical WLBU2 (1 mg/mL) in PBS (pH 7.4). Implants were sonicated 10 minutes, and colony forming unit (CFU) assay was performed on blood agar plates to quantify bacterial burden.
At 2 days post infection irrigation and debridement (I&D) was performed on the infected joint. Treatment with PLG0206 was administered at 1 mg/mL concentration (ex vivo or in vivo) and 0.5 mg/mL concentration (in vivo) at 15 (ex vivo and in vivo), and 7.5 minutes (in vivo) exposure times. For the ex vivo administration, the implant was removed and exposed to PLG0206 solution in a tube for 15 minutes. For the in vivo administration, irrigation and debridement on the joint was performed followed by PLG0206 treatment. The animals were euthanized after treatment, and the implants removed post mortem.

Assay [2] has as its system S. aureus (strain: SH1000). The assay can be described thus: Rabbit PJI model, I&D with PLG0206 and/or systemic cefazolin, implant and tibia CFU up to Day 28. The class given is in vivo, Staphylococcus aureus. The procedure: as §1, §2
At 2 days post infection I&D will be performed on the infected joint and treatments will begin. Animals will receive treatment with an I&D alone, I&D with PLG0206, systemic treatment with cefazolin, or both PLG0206 and cefazolin When an animal dies or is sick and needs to be euthanized, the implant and a part of the tibia will be collected post mortem and bacterial burden will be determined by CFU. All surviving animals will be euthanized on Day 28 and the implant and tibia will be collected post mortem for CFU analysis.

Assay [3] concerns S. aureus SH1000 mature biofilms. The assay can be described thus: S. aureus biofilm implant in vitro killing assay (mature biofilm on Kirschner wire, CFU analysis). The class given is cell-based, Staphylococcus aureus. To be noted: for time to achieve 99.9% reduction of biofilm CFU compared to untreated implant pieces: treated in MHB media. The procedure: (§3) Bacterial strains and culture. S. aureus SH1000 was used for in vitro assays and the PJI animal model. SH1000 was inoculated in Tryptic Soy Broth (TSB, Becton Dickinson and Company) overnight at 37° C. with shaking at 250 rpm. Strains were diluted in Mueller Hinton Broth (MHB; Bectin Dickinson and Company) to a final concentration of 0.5×10^6 CFU/ml using the 0.5 MacFarland Standard (GFS Chemicals) and an Infinite M200 Spectrophotometer (Tecan). WLBU-2 (PLG0206) was supplied by Peptilogics (San Jose, California). All experiments were performed at least in triplicate at three separate times with freshly inoculated cultures.
S. aureus biofilm implant in vitro killing assays. Implant material was prepared from 0.6 mm diameter stainless steel Kirschner wire (Synthes) and cut into 6 mm length, autoclaved, and plated in wells along with SH1000 and all clinical strains at 1×10^6 CFU/ml. After plating, fresh MHB media was exchanged at 24 hours. At 48 hours, wire with mature biofilms were either placed into fresh MHB with either cefazolin or WLBU-2. Biofilms were treated with cefazolin at 0.13, 0.25, 0.5, and 1 mg/ml or WLBU-2 at 62, 125, 250, and 500 μg/ml. Cefazolin treated biofilm were removed 2, 6, and 24 hours after drug addition, WLBU-2 treated biofilm were removed 5 min, 20 min, 60 min, and 2 hours after drug addition. After treatment, Kirschner wires were placed in 1 ml of 1% Tween 20 and sonicated for 10 minutes. Sonicate was serially diluted and plated on TSA II with 5% sheep blood CS100 plates blood agar for colony forming unit (CFU) analysis. For pH analysis, prior to WLBU-2 addition, PBS was adjusted to more acidic pH using hydrochloric acid and more alkaline pH using ammonium hydroxide. Infected implant pieces were tested with WLBU-2 at both 0.5 and 1.0 μg/ml in PBS adjusted to pH of 6.5, 6.8, 7.0, 7.2, 7.4, and 8.0. Biofilm implant pieces were treated at very early time points of 2.5-20 minutes, then CFU analysis was performed.
as §3, with “Becton” for “Bectin”
S. aureus biofilm implant in vitro killing assays. Implant material was prepared from 0.6 mm diameter stainless steel Kirschner wire (Synthes) and cut into 6 mm length, autoclaved, and plated in wells along with SH1000 and all clinical strains at 1×10^6 CFU/ml. After plating, fresh MHB media was exchanged at 24 hours. At 48 hours, wire with mature biofilms were either placed into fresh MHB, normal saline, lactated ringers, or dPBS with fold dilutions of WLBU-2 at 62, 125, 250, 500, and 1000 μg/ml. dPBS solutions were prepared using any combination of the salt buffers listed in Table 3, dissolved in sterile, deionized water. After treatment, Kirschner wires were placed in 1 ml of 1% Tween 20 in dPBS and sonicated for 10 minutes. Sonicate was serially diluted and plated on TSA II with 5% sheep blood CS100 plates blood agar for colony forming unit (CFU) analysis. For pH analysis, prior to WLBU-2 addition, dPBS was adjusted to more acidic pH using hydrochloric acid and more alkaline pH using ammonium hydroxide. Infected implant pieces were tested with WLBU-2 at both 0.5 and 1.0 mg/ml in PBS adjusted to pH of 6.5, 6.8, 7.0, 7.2, 7.4, and 8.0. For ionic strength analysis, dPBS was adjusted to hypertonic conditions by addition of NaCl to dPBS (0.3 M) and hypotonic conditions by addition of deionized water to dPBS (0.08 M). […]

In assay [4] the test system is S. aureus SH1000 biofilm on PJI implant. The assay can be described thus: Periprosthetic Joint Infection Murine Washout Model (implant retrieved from mice, washed with peptide, CFU analysis). The class given is in vivo, Staphylococcus aureus. To be noted: mouse. From the text: Periprosthetic Joint Infection Murine Washout Model. Twelve-week-old […] female mice (Jackson) were used for all experiments. Mice were anesthetized by 2% isoflurane, hair was removed from leg and treated with betadine. With a scalpel, a medial parapatellar incision was made, and lateral displacement of the quadriceps-patellar complex allowed for visualization of the femoral intercondylar notch. With a 25-gauge needle, the femoral intramedullary canal was manually reamed. Mature S. aureus biofilm previously established on a 0.6 mm wide/6 mm long Kirschner wire (Synthes) was inserted into the reamed canal, and sutured closed. 48 hours later, mice were euthanized and the infected Kirschner wire implant were extracted, placed in WLBU-2 at 1.0 mg/ml in PBS previously pH adjusted to 6.5, 7.0, 7.2, or 7.4 for 10 minutes, and then placed 1% Tween 20 on ice. Implants were sonicated for 10 minutes. Samples were serially diluted and plated on TSA II with 5% sheep blood CS100 plates for CFU analysis.

Entries after “also recorded” stand apart in the source; their conditions may differ.

Turning to “WLBU-2: RRWVRRVRRVWRRVVRVVRRWVRR (SEQ ID NO: 10); synthetically engineered cationic antimicrobial peptide (RRWVRRVRRVWRRVVRVVRRWVRR; Antimicrobial peptide WLBU-2)”, the “reduction in bacterial burden in comparison to control” value in assay [1] (ex vivo treatment, 1 mg/mL, 15 minutes) was “greater than 2 log”; in assay [1] (in vivo treatment after I&D), “greater than 2 log”. Moreover, the “reduction in bacterial burden, 1 mg/ml for 15 minutes in comparison to 0.5 mg/ml” value in assay [1] (in vivo study) is “significantly greater reduction”. Besides, the “reduction in bacterial burden” value in assay [2] (1 mg/ml PLG0206 in combination with cefazolin (Group 4)) was 2.5 log. Further, the “bacterial burden in comparison to control” value in assay [2] (1 mg/ml treatment alone (Group 3)) was “not significant”. Besides, the results for the “contact time needed to achieve a three-log reduction in biofilm CFU” value in assay [3] (1.0 mg/ml in 6.5 pH PBS) and in assay [3] (1.0 mg/ml in 8.0 pH PBS) were 15 minutes and 2.5 minutes, respectively. Besides, the “biofilm CFU after treatment (sterile samples)” value in assay [3] (PBS pH 7.4) and in assay [3] (PBS pH 8.0) was 0 CFU throughout. The “reduction in biofilm CFU” value in assay [3] (dPBS at pH 7.5, 10 minutes, 62, 125, 250, 500 and 1000 μg/mL) is reported as “three-log reduction or greater; also recorded: three-log reduction”; in assay [3] (hypertonic dPBS at pH 7.5, 10 minutes) it was “a three-log reduction was not achieved”. In addition, the “reduction in bacterial biofilm” value was “over 99.9%” in assay [3] (dPBS, pH 7.0, 62-1000 μg/ml, 10 minutes) and “over 99.9%” in assay [3] (lactated ringers, pH 6.5, 62-1000 μg/ml, 10 minutes). For the same compound, the “biofilm CFU after treatment” value in assay [3] (hypotonic dPBS at pH 7.5, 10 minutes, 62, 125, 250, 500 and 1000 μg/mL) is reported as 0 CFU. Moreover, the “time needed to obtain 0 CFU sterile samples, compared to hypertonic dPBS” value in assay [3] (hypotonic dPBS of 0.08 M) was “less time needed”. Moreover, in assay [3] (hypotonic dPBS of 0.08 M), the “time needed to obtain a three-log reduction, compared to hypertonic dPBS” value was “less time needed”. Moreover, the “time to achieve a 99.9% reduction in biofilm CFU” value in assay [3] (in buffered PBS, doses of 62-1000 μg/ml) is ≤ 20 min. For the same compound, the “reduction in bacterial biofilm CFUs” value in assay [3] (normal saline, measured pH of 5.8, 62-1000 μg/ml, 10 minutes) is recorded as ~99%. In addition, the “contact time needed to obtain above a 99.9% clearance of biofilms” value in assay [3] (pH of the washout solution above 7.0) is on record as “under 5 minutes”. Further, in assay [3], the “time to achieve 99.9% reduction of biofilm CFU compared to untreated implant pieces” value was “under 2 hours”. Moreover, the “biofilm CFU on PJI implant compared to No Drug group” value in assay [4] (1.0 mg/ml in PBS pH 7.0, 10 minutes) is “significant reduction”; in assay [4] (1.0 mg/ml in PBS pH 7.2, 10 minutes) it was “significant reduction”; in assay [4] (1.0 mg/ml in PBS pH 7.4, 10 minutes), “significant reduction”. For the same compound, in assay [4] (1.0 mg/ml in PBS, 10 minutes), the “biofilm CFU on PJI implant, washout with 7.4 pH compared to washout with 6.5 pH” value is “significantly less; also recorded: significant reduction”.

Take `Cc1nnc(SCC2=C(C(=O)O)N3C(=O)[C@@H](NC(=O)Cn4cnnn4)[C@H]3SC2)s1` [Cefazolin, reference compound]: the “reduction in bacterial burden” value in assay [2] (cefazolin treatment alone (Group 2)) came to 1.5 log. Also, the “decrease in biofilm CFU over 6 hours” value in assay [3] (MHB, 6 hours) is listed as “only a modest decrease”. Moreover, in assay [3], the “time to achieve 99.9% reduction of biofilm CFU compared to untreated implant pieces” value is on record as “over 24 hours”.
